Holding throughout (assay): Transcriptional activity, GAL4-PPAR LBD chimera / PLAP reporter in CV-1 cells
Common to all, as to assay type: cell-based

The target of one experiment is T1, PPAR α (Homo sapiens, UniProt Q07869).
T1 construct: human PPAR 167-468 (PPARα); expressed in transfected cells; host or cells: CV-1 (ATCC CCL-70)
T1 sequence (Q07869 167-468): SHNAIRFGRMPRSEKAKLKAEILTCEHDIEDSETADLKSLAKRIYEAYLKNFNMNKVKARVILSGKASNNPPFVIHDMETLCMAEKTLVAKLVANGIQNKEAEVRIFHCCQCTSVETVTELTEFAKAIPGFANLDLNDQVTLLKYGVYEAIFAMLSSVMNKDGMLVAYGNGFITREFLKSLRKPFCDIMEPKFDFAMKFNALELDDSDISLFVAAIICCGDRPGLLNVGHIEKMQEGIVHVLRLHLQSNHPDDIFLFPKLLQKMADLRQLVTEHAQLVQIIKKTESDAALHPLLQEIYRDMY
The following applies: GAL4-PPARα LBD (167-468), PLAP activity 24 hours after addition, read-out: Transcriptional activities EC50 PPAR α. The source says:
(§1) A GAL4-PPAR LBD chimera expression vector was constructed by ligating human PPAR 167-468 (PPARα), 138-440 (NUC-1) and 174-475 (PPARγ) amino acid regions (LBD: Ligand Binding Domain) to a yeast transcriptional factor GAL4 1-147 amino acid region. As the reporter gene, PLAP (Placental Alkaline Phosphatase) was used, and this was ligated downstream of a TK promoter containing a 5-copy GAL4 DNA binding element to construct a vector. As host cells, CV-1 (ATCC CCL-70) was used. That is, CV-1 cells were spread at a density of 5×10^5 cells on a 35-mm dish and cultured in 10% FCS/DMEM for 24 hours, and using FuGENE 6 transfection reagent, the cells were co-transfected with the GAL4-PPAR LBD expression vector and GAL4 DBD-TK-PLAP expression vector. 24 hours after this transfection, the cells were spread again on a 96-well plate at a density of 1×10^4/well and further cultured for 24 hours. After 24 hours, the medium was exchanged with DMEM containing 10% FCS, which was previously treated at 65° C. for inactivating intrinsic alkaline phosphatase, and a test compound was added at an arbitrary concentration. The transcriptional activity was determined in terms of PLAP activity secreted 24 hours after addition of the compound, to calculate EC50. The PLAP activity was determined after adding 50 μl assay buffer and 50 μl chemoluminescence substrate to 10 μl culture supernatant and incubating the mixture at room temperature for 1 hour. The transcriptional activities for PPAR, PPARβ(δ) and PPARγ are shown respectively in Table 1.

A further experiment concerns the target T2, PPAR γ (Homo sapiens, UniProt P37231).
T2 construct: 174-475 (PPARγ); expressed in transfected cells; host or cells: CV-1 (ATCC CCL-70)
T2 sequence (P37231 174-475 isoform P37231-2): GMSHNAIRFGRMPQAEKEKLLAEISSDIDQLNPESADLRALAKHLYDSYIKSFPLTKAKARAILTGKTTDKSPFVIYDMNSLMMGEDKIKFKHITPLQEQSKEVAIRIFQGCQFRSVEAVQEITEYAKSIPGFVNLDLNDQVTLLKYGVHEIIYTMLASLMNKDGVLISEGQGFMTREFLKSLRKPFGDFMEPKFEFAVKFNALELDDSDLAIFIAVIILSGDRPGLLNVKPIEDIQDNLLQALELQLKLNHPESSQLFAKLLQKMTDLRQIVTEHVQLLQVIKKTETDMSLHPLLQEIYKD
The following applies: GAL4-PPARγ LBD (174-475), PLAP activity 24 hours after addition, read-out: Transcriptional activities EC50 PPAR γ.
Excerpt: as §1

The next experiment deals with T3, PPAR β (Homo sapiens, UniProt Q03181).
T3 construct: 138-440 (NUC-1); expressed in transfected cells; host or cells: CV-1 (ATCC CCL-70)
T3 sequence (Q03181 138-440): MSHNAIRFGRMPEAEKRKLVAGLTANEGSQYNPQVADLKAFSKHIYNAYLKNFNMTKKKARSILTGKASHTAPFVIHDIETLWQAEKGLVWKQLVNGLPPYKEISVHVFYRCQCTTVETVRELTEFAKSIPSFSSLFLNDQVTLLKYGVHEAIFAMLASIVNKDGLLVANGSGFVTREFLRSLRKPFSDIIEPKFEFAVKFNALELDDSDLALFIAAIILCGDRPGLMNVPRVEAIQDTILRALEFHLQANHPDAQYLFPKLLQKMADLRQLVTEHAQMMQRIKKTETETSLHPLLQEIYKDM
The following applies: GAL4-NUC-1 LBD (138-440), PLAP activity 24 hours after addition, read-out: Transcriptional activities EC50 PPAR β.
Excerpt: as §1

The structures appear in SMILES notation.

One may read the EC50 as the concentration that produces a half-maximal response.

Take `CC(C)OC(Cc1ccnc(OCCOc2ccc(Cl)cc2Cl)c1)C(=O)O` (stereo not drawn) [Example 1, 3-{2-[2-(2,4-Dichlorophenoxy)ethoxy]-4-pyridyl}-2-isopropoxypropanoic acid]: the values for the EC50 at PPAR α, at PPAR γ and at PPAR β were 5.6 nM, 68.5 nM and 1410 nM, respectively.
For `CCOC(Cc1ccnc(OCCOc2ccc(C(F)(F)F)cc2)c1)C(=O)O` (stereo not drawn) [Example 19, 2-Ethoxy-3-(2-{2-[4-(trifluoromethyl)phenoxy]ethoxy}-4-pyridyl)propanoic acid] the same measures were 4.9 nM, 64.1 nM and 339 nM.
As for `CCOC(Cc1ccnc(OCCOc2ccc(C(C)(C)C)cc2)c1)C(=O)O` (stereo not drawn) [Example 25, 3-(2-{2-[4-(tert-Butyl)phenoxy]ethoxy}-4-pyridyl)-2-ethoxypropanoic acid], the EC50 was determined as 2.7 nM on PPAR α, 76.3 nM at PPAR γ and 1580 nM at PPAR β.

The values are drawn from patent publication US7253178B2, “Carboxylic acids” (Eisai Co., Ltd., priority 2001, dated 2007).
